Earlier results, collected in patent US20170360829A1, “TREATMENT OF VASCULAR ANOMALIES” (GILLIES MCINDOE RESEARCH INSTITUTE, priority 2016, published 2017).

Key:
[1] = system: venous malformation (VM); conditions: treatment of VM; review by van der Vleuten et al. (ref. 14)
[2] = system: several tumoral cell lines

Row | Compound | effective in % of cases [1] [%] | IC50 relative to cisplatin [2]
1 | CCO [ethanol] | 74 | –
2 | CCCCCCCCCCCCCCOS(=O)(=O)[O-].[Na+] [sodium tetradecyl sulfate] | 86 | –
3 | [Pt(dmba)(aza-N1)(dmso)] complex 1 | – | lower IC50 than cisplatin
4 | bleomycin | 88 | –
5 | polidocanol | 82 | –
